US20080293712A1, “Benzo[C][2,7]Naphtyridine Derivatives, Methods of Making Thereof and Methods of Use Thereof” (WYETH, priority 2007, published 2008)

What follows are molecules tested against T1, PDK-1 (Homo sapiens, UniProt O15530) (assay: PDK-1 kinase inhibition ELISA assay (phosphorylation of His6-tagged SGK1 S422D by PDK-1)). Settings: not given.
T1 sequence (O15530 1-556): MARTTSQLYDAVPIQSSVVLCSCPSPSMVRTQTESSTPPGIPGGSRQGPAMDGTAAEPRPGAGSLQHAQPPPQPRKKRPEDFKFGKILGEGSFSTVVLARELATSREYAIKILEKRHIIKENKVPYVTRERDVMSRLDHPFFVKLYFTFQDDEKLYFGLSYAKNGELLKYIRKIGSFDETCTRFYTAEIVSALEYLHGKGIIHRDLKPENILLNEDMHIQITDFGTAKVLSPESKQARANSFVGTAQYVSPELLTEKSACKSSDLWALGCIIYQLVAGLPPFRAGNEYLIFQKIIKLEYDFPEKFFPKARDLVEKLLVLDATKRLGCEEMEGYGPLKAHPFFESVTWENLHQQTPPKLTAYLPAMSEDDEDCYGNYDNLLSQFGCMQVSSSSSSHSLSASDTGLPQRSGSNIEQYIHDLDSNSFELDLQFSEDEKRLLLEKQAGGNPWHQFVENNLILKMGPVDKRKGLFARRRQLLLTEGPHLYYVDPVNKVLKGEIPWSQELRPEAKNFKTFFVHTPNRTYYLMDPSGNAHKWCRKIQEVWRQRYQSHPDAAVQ
Format: biochemical

Q: How did the IC50 turn out when COc1cc2ncc3c(N)nc(-c4cncc(Nc5ccccc5F)c4)cc3c2cc1OC [Ib-205, 2-{5-[(2-fluorophenyl)amino]pyridin-3-yl}-8,9-dimethoxybenzo[c][2,7]naphthyridin-4-amine] was run?
A: 183 nM

Q: With COc1ccccc1Nc1cncc(-c2cc3c(cnc4cc(OC)c(OC)cc43)c(N)n2)c1 [Ib-181, 8,9-dimethoxy-2-{5-[(2-methoxyphenyl)amino]pyridin-3-yl}benzo[c][2,7]naphthyridin-4-amine] as the molecule, how does the IC50 read?
A: 73.7 nM

Q: How did the IC50 turn out when COc1cc2ncc3c(N)nc(-c4cncc(Nc5ccccc5CCO)c4)cc3c2cc1OC [Ib-197, 2-(2-{[5-(4-amino-8,9-dimethoxybenzo[c][2,7]naphthyridin-2-yl)pyridin-3-yl]amino}phenyl)ethanol] was run?
A: 24 nM

Same assay, conditions: PDK-1 ELISA, Table 11; read-out: Average IC50

Q: For COc1cc2ncc3c(N)nc(-c4cncc(OC[C@@H](N)COS(C)(=O)=O)c4)cc3c2cc1OC [Ib-7, (2R)-2-Amino-3-{[5-(4-amino-8,9-dimethoxybenzo[c]-2,7-naphthyridin-2-yl)pyridin-3-yl]oxy}propyl methanesulfonate], which IC50 is on record?
A: 16 nM

Q: For COCCOc1cc2ncc3c(N)nc(N(C)C(C)C)cc3c2cc1OC [Ia-45, N^2-isopropyl-9-methoxy-8-(2-methoxyethoxy)-N^2-methylbenzo[c]-2,7-naphthyridine-2,4-diamine], which IC50 is on record?
A: 1430 nM

Q: COc1cc2ncc3c(N)nc(-c4cncc(OC[C@@H](N)CNC(C)(C)c5ccccc5)c4)cc3c2cc1OC [Ib-90, (2S)-3-{[5-(4-amino-8,9-dimethoxybenzo[c][2,7]naphthyridin-2-yl)pyridin-3-yl]oxy}-N1-(1-methyl-1-phenylethyl)propane-1,2-diamine] was tested. Which IC50 did it give?
A: 7 nM

Q: How did the IC50 turn out when COc1cc2ncc3c(N)nc(-c4cncc(OC[C@@H](N)CNC5CCOCC5)c4)cc3c2cc1OC [Ib-96, (2S)-3-{[5-(4-amino-8,9-dimethoxybenzo[c][2,7]naphthyridin-2-yl)pyridin-3-yl]oxy}-N1-(tetrahydro-2H-pyran-4-yl)propane-1,2-diamine] was run?
A: 26 nM

Q: With COc1cc2ncc3c(N)nc(-c4cncc(OC[C@@H](N)COc5cc(C(F)(F)F)ccc5F)c4)cc3c2cc1OC [Ib-144, 2-[5-({(2R)-2-amino-3-[2-fluoro-5-(trifluoromethyl)phenoxy]propyl}oxy)pyridin-3-yl]-8,9-dimethoxybenzo[c][2,7]naphthyridin-4-amine] as the molecule, how does the IC50 read?
A: 64 nM

Q: How did the IC50 turn out when COc1cc2ncc3c(N)nc(-c4cc(F)cc(F)c4)cc3c2cc1OC [Ib-239, 2-(3,5-difluorophenyl)-8,9-dimethoxybenzo[c][2,7]naphthyridin-4-amine] was run?
A: 1000 nM

Q: Which IC50 does the source give for COc1cc2ncc3c(N)nc(-c4cncc(CCC5(N)CCCCC5)c4)cc3c2cc1OC [Ib-258, 2-{5-[2-(1-aminocyclohexyl)ethyl]pyridin-3-yl}-8,9-dimethoxybenzo[c][2,7]naphthyridin-4-amine] here?
A: 27 nM

Q: With COc1cc2ncc3c(N)nc(-c4cncc(OC[C@@H](N)CNC5CCC(O)CC5)c4)cc3c2cc1OC (stereo partly drawn) [Ib-91, 4-{[(2S)-2-amino-3-{[5-(4-amino-8,9-dimethoxybenzo[c][2,7]naphthyridin-2-yl)pyridin-3-yl]oxy}propyl]amino}cyclohexanol] as the molecule, how does the IC50 read?
A: 40 nM

Q: COc1cc2ncc3c(N)nc(N4CC[C@H](O)C4)cc3c2cc1OC [Ib-68, (3S)-1-(4-amino-8,9-dimethoxybenzo[c]-2,7-naphthyridin-2-yl)pyrrolidin-3-ol] was tested. Which IC50 did it give?
A: 4120 nM

Q: For COCCOc1cc2ncc3c(N)nc(N(C)CC4OCCO4)cc3c2cc1OC [Ia-44, N^2-(1,3-dioxolan-2-ylmethyl)-9-methoxy-8-(2-methoxyethoxy)-N^2-methylbenzo[c]-2,7-naphthyridine-2,4-diamine], which IC50 is on record?
A: 2680 nM

Q: For COCCOc1cc2ncc3c(N)nc(N4CCC(O)CC4)cc3c2cc1OC [Ia-53, 1-[4-amino-9-methoxy-8-(2-methoxyethoxy)benzo[c]-2,7-naphthyridin-2-yl]piperidin-4-ol], which IC50 is on record?
A: 2060 nM

Q: For COc1cc2ncc3c(N)nc(-c4cncc(Nc5ccccc5-c5ccccc5)c4)cc3c2cc1OC [Ib-204, 2-[5-(biphenyl-2-ylamino)pyridin-3-yl]-8,9-dimethoxybenzo[c][2,7]naphthyridin-4-Amine], which IC50 is on record?
A: 51 nM

Q: How did the IC50 turn out when COc1cc2ncc3c(N)nc(-c4cncc(OC[C@@H](N)COc5ncccn5)c4)cc3c2cc1OC [Ib-149, 2-(5-{[(2R)-2-amino-3-(pyrimidin-2-yloxy)propyl]oxy}pyridin-3-yl)-8,9-dimethoxybenzo[c][2,7]naphthyridin-4-amine] was run?
A: 7 nM

Q: CC[C@H](N)COc1cncc(-c2cc3c(cnc4cc(OC)c(OC)cc43)c(N)n2)c1 [Ib-14, 2-(5-{[(2S)-2-aminobutyl]oxy}pyridin-3-yl)-8,9-dimethoxybenzo[c]-2,7-naphthyridin-4-amine] was tested. Which IC50 did it give?
A: 6 nM

Q: With COc1cc2ncc3c(N)nc(-c4cncc(OC[C@@H](N)COc5nc6ccccc6[nH]5)c4)cc3c2cc1OC [Ib-146, 2-(5-{[(2R)-2-amino-3-(1H-benzimidazol-2-yloxy)propyl]oxy}pyridin-3-yl)-8,9-dimethoxybenzo[c][2,7]naphthyridin-4-amine] as the molecule, how does the IC50 read?
A: 2 nM

Q: How did the IC50 turn out when COc1cc2ncc3c(N)nc(-c4cncc(C#CCN(C)[C@H](C)Cc5ccccc5)c4)cc3c2cc1OC [Ib-22, 8,9-Dimethoxy-2-[5-(3-{methyl[(1R)-1-methyl-2-phenylethyl]amino}prop-1-yn-1-yl)pyridin-3-yl]benzo[c]-2,7-naphthyridin-4-amine] was run?
A: > 100 nM

Q: Which IC50 does the source give for COc1cc2ncc3c(N)nc(-c4cncc(OC[C@@H](N)COc5ccc(Cl)cn5)c4)cc3c2cc1OC [Ib-154, 2-[5-({(2R)-2-amino-3-[(5-chloropyridin-2-yl)oxy]propyl}oxy)pyridin-3-yl]-8,9-dimethoxybenzo[c][2,7]naphthyridin-4-amine] here?
A: 4 nM

Q: With COc1cc2ncc3c(N)nc(-c4cncc(Nc5cccc(CN)c5)c4)cc3c2cc1OC [Ib-189, 2-(5-{[3-(aminomethyl)phenyl]amino}pyridin-3-yl)-8,9-dimethoxybenzo[c][2,7]naphthyridin-4-amine] as the molecule, how does the IC50 read?
A: 27 nM

Q: Which IC50 does the source give for COCCOc1cc2ncc3c(N)nc(N(C)CCOC)cc3c2cc1OC [Ia-54, 9-methoxy-8-(2-methoxyethoxy)-N^2-(2-methoxyethyl)-N^2-methylbenzo[c]-2,7-naphthyridine-2,4-diamine] here?
A: 2260 nM

Q: Which IC50 does the source give for COc1cc2ncc3c(N)nc(-c4cncc(OC[C@@H](N)COc5nccc6ccccc56)c4)cc3c2cc1OC [Ib-147, 2-(5-{[(2R)-2-amino-3-(isoquinolin-1-yloxy)propyl]oxy}pyridin-3-yl)-8,9-dimethoxybenzo[c][2,7]naphthyridin-4-amine] here?
A: 10 nM

Q: With COc1cc2ncc3c(N)nc(-c4cncc(Nc5ccccn5)c4)cc3c2cc1OC [Ib-199, 8,9-dimethoxy-2-[5-(pyridin-2-ylamino)pyridin-3-yl]benzo[c][2,7]naphthyridin-4-Amine] as the molecule, how does the IC50 read?
A: 476 nM

Q: With COc1cc2c(cc1OCCN1CCN(C)CC1)ncc1c(N)nc(-n3ccnc3)cc12 [Ia-10, 2-(1H-imidazol-1-yl)-9-methoxy-8-(2-(4-methylpiperazin-1-yl)ethoxy)benzo[c][2,7]naphthyridin-4-amine] as the molecule, how does the IC50 read?
A: 1150 nM

Q: For COc1cc2ncc3c(N)nc(-c4cncc(OC[C@@H](N)CNC5CCCCC5)c4)cc3c2cc1OC [Ib-89, (2S)-3-{[5-(4-amino-8,9-dimethoxybenzo[c][2,7]naphthyridin-2-yl)pyridin-3-yl]oxy}-N1-cyclohexylpropane-1,2-diamine], which IC50 is on record?
A: 61 nM

Q: For COc1cc2ncc3c(N)nc(-c4cncc(OC[C@@H](N)COc5cc(C)ccn5)c4)cc3c2cc1OC [Ib-152, 2-[5-({(2R)-2-amino-3-[(4-methylpyridin-2-yl)oxy]propyl}oxy)pyridin-3-yl]-8,9-dimethoxybenzo[c][2,7]naphthyridin-4-amine], which IC50 is on record?
A: 9 nM

Q: With CC[C@@H](N)COc1cncc(-c2cc3c(cnc4cc(OC)c(OC)cc43)c(N)n2)c1 [Ib-18, 2-(5-{[(2R)-2-aminobutyl]oxy}pyridin-3-yl)-8,9-dimethoxybenzo[c]-2,7-naphthyridin-4-amine] as the molecule, how does the IC50 read?
A: 2 nM

Q: Which IC50 does the source give for COc1cc2ncc3c(N)nc(-c4cncc(Nc5ccc(CO)cc5)c4)cc3c2cc1OC [Ib-194, (4-{[5-(4-amino-8,9-dimethoxybenzo[c][2,7]naphthyridin-2-yl)pyridin-3-yl]amino}phenyl)methanol] here?
A: 142 nM

Q: For COc1cc2ncc3c(N)nc(-c4cncc(Nc5ccccc5OCc5ccccc5)c4)cc3c2cc1OC [Ib-202, 2-(5-{[2-(benzyloxy)phenyl]amino}pyridin-3-yl)-8,9-dimethoxybenzo[c][2,7]naphthyridin-4-amine], which IC50 is on record?
A: 1000 nM

Q: With COc1cc2ncc3c(N)nc(-c4cncc(Nc5cccc(CO)c5)c4)cc3c2cc1OC [Ib-195, (3-{[5-(4-amino-8,9-dimethoxybenzo[c][2,7]naphthyridin-2-yl)pyridin-3-yl]amino}phenyl)methanol] as the molecule, how does the IC50 read?
A: 67 nM

Q: How did the IC50 turn out when COc1cc2ncc3c(N)nc(-c4cncc(OC[C@@H](N)COc5ccncc5)c4)cc3c2cc1OC [Ib-151, 2-(5-{[(2S)-2-amino-3-(pyridin-4-yloxy)propyl]oxy}pyridin-3-yl)-8,9-dimethoxybenzo[c][2,7]naphthyridin-4-amine] was run?
A: 10 nM

Q: COc1cc2ncc3c(N)nc(-c4cncc(OC[C@@H](N)CNC5CCC5)c4)cc3c2cc1OC [Ib-100, (2S)-3-{[5-(4-amino-8,9-dimethoxybenzo[c][2,7]naphthyridin-2-yl)pyridin-3-yl]oxy}-N1-cyclobutylpropane-1,2-diamine] was tested. Which IC50 did it give?
A: 63 nM
